Test results from US20260000676A1, “CHROMAN DERIVATIVES AS ESTROGEN RECEPTOR DEGRADERS” (THE REGENTS OF THE UNIVERSITY OF MICHIGAN, priority 2022, published 2026).

What was measured:
ER [1] = biological target: T1, ER (Homo sapiens (Human), UniProt P03372); experiment: In-cell western (ICW) ER degradation assay in MCF-7 cells; type: cell-based; conditions: MCF7, 16 hrs; for DC50: ER degradation; for MCF7 Dmax %: maximal ER degradation; for Dmax: MCF7, maximal ER degradation
ERα_LBD(GST) = ERα_LBD(GST) (Homo sapiens (Human), UniProt P03372); experiment: LanthaScreen TR-FRET ERα competitive binding assay; conditions: read-out: ERα HTRF IC50
Experimental: • 1. ERα_LBD(GST) protein: 4 nM • 2. Tb Anti-GST: 2 nM • 3. Fluormone ES2 Green tracer: 3 nM • 4. Incubation time: 60 min • 5. DMSO: 1% • 6. Assay buffer: Adding 1M DTT to Nuclear receptor Buffer K for final 5 mM DTT. • 7. ZPE: 1% DMSO • 8. HPE: 1 μM ARV_471 • 9. LanthaScreen® TR-FRET ERα Competitive Binding Assay (ThermoFisher, #A15887)
• 1) Cherry pick 2 μL 10 mM compound stock to column 1 of a 384 intermediate plate • 2) Add 18 μL DMSO to column 1 to dilute compound to 1 mM. • 3) Transfer 10 μL 1 mM compound to column 1 of a LDV plate. • 2) Add 6 μl DMSO to column 2-10 of the LDV plate. • 3) Compounds undergo 3-fold serial dilution (3 μL+6 μL) in DMSO. • 4) Transfer 120 nL compound solution to assay plate. • ZPE: 120 nL 100% DMSO
Prepare complete nuclear receptor buffer K by adding 1 M DTT to nuclear receptor buffer K for a final concentration of 5 mM DTT. Complete nuclear receptor buffer K must be prepared fresh daily. Prepare 2× protein solution using complete nuclear receptor buffer K containing 8 nM ERα_LBD(GST) and 4 nM Tb Anti-GST. Then, prepare 2× Fluormone ES2 Green tracer (6 nM) using complete nuclear receptor buffer K. Add 6 μL 2× Fluormone ES2 green tracer into a compound plate (PerkinElmer 6008289) by dragonfly with one-tips-addition. Subsequently, add 6 μL 2× protein solution into the plate. Briefly and gently mix the 384-well plate on a plate shaker and incubate at room temperature protected from light for 60 min. The plate is sealed with a cover to minimize evaporation. Read the plate at wavelengths of 520 nm and 495 nm. Calculate the TR-FRET ratio by dividing the emission signal at 520 nm by the emission signal at 495 nm. Generate a binding curve by plotting the emission ratio vs. the log [ligand]. To determine the IC50 value, fit the data using XL-fit for a sigmoidal dose-response.

ER [2] = biological target: T1, ER; experiment: In-cell western (ICW) ER degradation assay in T47D cells; type: cell-based; conditions: 16 hrs; for DC50: ER degradation; for T47D Dmax % / Dmax: maximal ER degradation
CRBN/DDB1 = CRBN/DDB1 (Homo sapiens (Human), UniProt Q96SW2); experiment: HTRF binding assay to CRBN/DDB1; conditions: read-out: CRBN HTRF IC50
Experimental: The binding potency was determined using HTRF assay technology (Perkin Elmer). Compounds were serially diluted in DMSO and 0.2 μL volume was transferred to white 384-well plate.

Chain of ERα_LBD(GST) (P03372 311-547): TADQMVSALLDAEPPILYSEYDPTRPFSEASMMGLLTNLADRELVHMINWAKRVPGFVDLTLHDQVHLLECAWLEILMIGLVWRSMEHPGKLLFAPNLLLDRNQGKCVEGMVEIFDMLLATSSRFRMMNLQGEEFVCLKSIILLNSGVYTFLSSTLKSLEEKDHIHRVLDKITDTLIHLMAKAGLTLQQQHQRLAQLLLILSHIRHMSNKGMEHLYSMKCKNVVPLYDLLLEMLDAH
Chain of CRBN/DDB1 (Q96SW2 whole entry): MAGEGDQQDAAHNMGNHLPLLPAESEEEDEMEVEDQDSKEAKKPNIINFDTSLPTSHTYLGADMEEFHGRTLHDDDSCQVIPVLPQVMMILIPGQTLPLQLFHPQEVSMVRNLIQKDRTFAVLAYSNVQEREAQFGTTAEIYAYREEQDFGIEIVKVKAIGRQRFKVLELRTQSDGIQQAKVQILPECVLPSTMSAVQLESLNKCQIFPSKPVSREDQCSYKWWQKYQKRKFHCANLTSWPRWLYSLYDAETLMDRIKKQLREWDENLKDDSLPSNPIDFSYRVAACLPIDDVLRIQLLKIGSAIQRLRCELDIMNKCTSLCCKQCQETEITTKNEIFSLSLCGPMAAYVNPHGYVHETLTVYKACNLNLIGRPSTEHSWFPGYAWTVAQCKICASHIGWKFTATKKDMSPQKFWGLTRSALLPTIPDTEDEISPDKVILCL
Chain of CRBN/DDB1 (Q16531 whole entry partner): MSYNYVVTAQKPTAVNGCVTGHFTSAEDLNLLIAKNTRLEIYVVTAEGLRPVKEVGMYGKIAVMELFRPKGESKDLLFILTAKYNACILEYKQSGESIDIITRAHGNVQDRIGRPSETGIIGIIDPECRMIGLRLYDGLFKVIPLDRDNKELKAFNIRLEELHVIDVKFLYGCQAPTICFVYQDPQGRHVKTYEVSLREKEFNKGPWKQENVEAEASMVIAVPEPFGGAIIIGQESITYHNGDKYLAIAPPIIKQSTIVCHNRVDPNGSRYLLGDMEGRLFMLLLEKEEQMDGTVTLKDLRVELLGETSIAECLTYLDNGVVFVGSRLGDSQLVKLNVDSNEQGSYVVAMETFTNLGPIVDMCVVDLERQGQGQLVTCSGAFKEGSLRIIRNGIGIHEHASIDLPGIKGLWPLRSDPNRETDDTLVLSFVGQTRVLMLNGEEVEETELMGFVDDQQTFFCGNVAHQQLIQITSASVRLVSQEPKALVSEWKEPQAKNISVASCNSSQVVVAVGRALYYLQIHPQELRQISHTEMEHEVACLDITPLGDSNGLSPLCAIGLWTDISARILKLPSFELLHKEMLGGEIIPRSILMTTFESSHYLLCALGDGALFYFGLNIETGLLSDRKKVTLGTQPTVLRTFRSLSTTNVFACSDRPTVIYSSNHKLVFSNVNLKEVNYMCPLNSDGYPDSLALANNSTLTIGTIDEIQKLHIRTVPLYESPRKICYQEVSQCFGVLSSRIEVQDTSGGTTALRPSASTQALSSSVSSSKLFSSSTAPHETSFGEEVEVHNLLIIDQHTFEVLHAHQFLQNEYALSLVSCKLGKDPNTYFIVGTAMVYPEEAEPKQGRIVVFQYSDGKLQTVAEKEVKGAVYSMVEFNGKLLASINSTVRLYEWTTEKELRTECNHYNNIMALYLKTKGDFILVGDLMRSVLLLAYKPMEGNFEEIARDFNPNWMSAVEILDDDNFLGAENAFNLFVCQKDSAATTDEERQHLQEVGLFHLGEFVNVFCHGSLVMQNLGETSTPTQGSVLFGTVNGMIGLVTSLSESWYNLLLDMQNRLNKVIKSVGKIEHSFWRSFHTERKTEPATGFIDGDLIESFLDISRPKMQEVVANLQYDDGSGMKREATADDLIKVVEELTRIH
T1 sequence (P03372 whole entry): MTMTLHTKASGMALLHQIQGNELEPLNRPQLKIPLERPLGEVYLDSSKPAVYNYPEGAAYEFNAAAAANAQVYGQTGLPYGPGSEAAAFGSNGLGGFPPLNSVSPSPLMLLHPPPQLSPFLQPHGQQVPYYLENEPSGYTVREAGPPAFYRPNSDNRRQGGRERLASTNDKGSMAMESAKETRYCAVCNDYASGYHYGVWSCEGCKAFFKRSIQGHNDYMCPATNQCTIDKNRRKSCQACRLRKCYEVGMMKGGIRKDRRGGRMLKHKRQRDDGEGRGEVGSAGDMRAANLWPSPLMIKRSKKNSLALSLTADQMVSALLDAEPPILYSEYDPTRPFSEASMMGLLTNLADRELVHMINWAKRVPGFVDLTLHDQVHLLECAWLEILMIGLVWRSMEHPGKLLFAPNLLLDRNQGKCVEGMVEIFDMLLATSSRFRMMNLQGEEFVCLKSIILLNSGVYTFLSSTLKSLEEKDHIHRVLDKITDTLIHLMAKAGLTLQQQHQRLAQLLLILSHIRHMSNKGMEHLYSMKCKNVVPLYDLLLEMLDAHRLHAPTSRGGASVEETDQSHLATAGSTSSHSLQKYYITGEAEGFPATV

Row | Structure (SMILES) | DC50 (ER [1]) | MCF7 Dmax % (ER [1]) | IC50 (ERα_LBD(GST)) | DC50 (ER [2]) | T47D Dmax % (ER [2]) | IC50 (CRBN/DDB1) | Dmax (ER [1]) | Dmax (ER [2])
1 | COc1cc(N2CCC(CN3CCN(c4ccc(C(=O)NC5CCC(=O)NC5=O)nc4)CC3)CC2)c(F)cc1[C@H]1c2ccc(O)cc2OC[C@H]1c1ccccc1 (stereo partly drawn) [Compound A110, N-(2,6-dioxopiperidin-3-yl)-5-(4-((1-(2-fluoro-4-((3R,4R)-7-hydroxy-3-phenylchroman-4-yl)-5-methoxyphenyl)piperidin-4-yl)methyl)piperazin-1-yl)picolinamide] | < 1 nM | B (“B”: >50% and <75%) | < 5 nM | < 1 nM | B (“B”: >50% and <75%) | > 5000 nM |  | 
2 | COc1cc(N2CCC(CN3CCN4c5ccc6c(c5OC[C@H]4C3)CN(C3CCC(=O)NC3=O)C6=O)CC2)ccc1[C@@H]1c2ccc(O)cc2OC[C@@H]1c1ccccc1 (single isomer, unassigned) [Compound A77] | < 1 nM |  | < 5 nM | < 1 nM |  | 500 to 5000 nM | 50 to 75% | 50 to 75%
3 | O=C1CCC(N2Cc3c(ccc4c3OC[C@H]3CN(CC5CC6(CCN(c7ccc([C@@H]8c9ccc(O)cc9OC[C@@H]8c8ccccc8)cn7)CC6)C5)CCN43)C2=O)C(=O)N1 (single isomer, unassigned) [Compound A66] | 1 to 10 nM | B (“B”: >50% and <75%) | ≥ 5 nM | 1 to 10 nM | B (“B”: >50% and <75%) |  |  | 
4 | O=C1CCC(N2Cc3c(ccc4c3OC[C@H]3CN(CC5CCN(c6ccc([C@@H]7c8ccc(O)cc8OC[C@@H]7c7ccccc7)cc6)CC5)CCN43)C2=O)C(=O)N1 (single isomer, unassigned) [Compound A8, 3-((R)-7-((1-(4-((3S,4R)-7-hydroxy-3-phenylchroman-4-yl)phenyl)piperidin-4-yl)methyl)-1-oxo-1,3,5,5a,6,7,8,9-octahydro-2H-pyrazino[1′,2′:4,5][1,4]oxazino[2,3-e]isoindol-2-yl)piperidine-2,6-dione] |  |  | < 5 nM |  |  |  | 50 to 75% | 
5 | COc1cc(N2CCC(CN3CCN4c5cc6c(cc5OC[C@H]4C3)C(=O)N([C@@H]3CCC(=O)NC3=O)C6)CC2)ccc1[C@H]1c2ccc(O)cc2OC[C@H]1c1ccccc1 (single isomer, unassigned) [Compound A122] | < 1 nM |  | < 5 nM | < 1 nM |  |  | ≥ 75% | ≥ 75%
6 | O=C1CCC(N2Cc3c(ccc4c3OC[C@H]3CN(CC5CCN(c6ccc([C@@H]7c8ccc(O)cc8OC[C@@H]7c7ccccc7)cc6F)CC5)CCN43)C2=O)C(=O)N1 (single isomer, unassigned) [Compound A9, 3-((R)-7-((1-(2-fluoro-4-((3S,4R)-7-hydroxy-3-phenylchroman-4-yl)phenyl)piperidin-4-yl)methyl)-1-oxo-1,3,5,5a,6,7,8,9-octahydro-2H-pyrazino[1′,2′:4,5][1,4]oxazino[2,3-e]isoindol-2-yl)piperidine-2,6-dione] |  |  | < 5 nM |  |  |  | 50 to 75% | 
7 | O=C1CC[C@@H](N2Cc3cc4c(cc3C2=O)OCC42CCN(CC3CCC4(CC3)CN(c3ccc([C@H]5c6ccc(O)cc6OC[C@H]5c5ccccc5)cc3)C4)CC2)C(=O)N1 [Compound A153, (R)-3-(1′-((2-(4-((3R,4S)-7-hydroxy-3-phenylchroman-4-yl)phenyl)-2-azaspiro[3.5]nonan-7-yl)methyl)-7-oxo-5,7-dihydro-2H,6H-spiro[furo[2,3-f]isoindole-3,4′-piperidin]-6-yl)piperidine-2,6-dione] | < 1 nM |  | < 5 nM | < 1 nM |  |  | 50 to 75% | ≥ 75%
8 | O=C1CCC(N2Cc3cc4c(cc3C2=O)OC[C@@H]2CN(CC3CC5(CCN(c6ccc([C@H]7c8ccc(O)cc8OC[C@H]7c7ccccc7)cc6)CC5)C3)CCN42)C(=O)N1 (single isomer, unassigned) [Compound A27] |  |  | < 5 nM |  |  |  | 50 to 75% | 
9 | COc1cc(N2CCC(CN3CCN4c5cc6c(cc5OC[C@H]4C3)C(=O)N(C3CCC(=O)NC3=O)C6)CC2)ccc1[C@@H]1c2ccc(O)cc2OC[C@@H]1c1ccccc1 (single isomer, unassigned) [Compound A84] |  |  | < 5 nM |  |  |  | 50 to 75% | 50 to 75%
10 | O=C1CC[C@H](N2Cc3cc4c(cc3C2=O)OC[C@@H]2CN(CC3CC5(CCN(c6ccc([C@@H]7c8ccc(O)cc8OC[C@@H]7c7ccccc7)cc6)CC5)C3)CCN42)C(=O)N1 (single isomer, unassigned) [Compound A59] | 1 to 10 nM |  | < 5 nM | < 1 nM |  |  | 50 to 75% | ≥ 75%
11 | COc1cc(N2CCC(CN3CCN4c5ccc6c(c5OC[C@@H]4C3)CN([C@@H]3CCC(=O)NC3=O)C6=O)CC2)ccc1[C@H]1c2ccc(O)cc2OC[C@H]1c1ccccc1 (single isomer, unassigned) [Compound A121] |  |  | < 5 nM |  |  |  | ≥ 75% | ≥ 75%
12 | O=C1CCC(N2Cc3cc4c(cc3C2=O)OCC42CCN(CC3CCC4(CC3)CN(c3ccc([C@H]5c6ccc(O)cc6OC[C@H]5c5ccccc5)cc3)C4)CC2)C(=O)N1 (stereo partly drawn) [Compound A99, 3-(1′-((2-(4-((3R,4S)-7-hydroxy-3-phenylchroman-4-yl)phenyl)-2-azaspiro[3.5]nonan-7-yl)methyl)-7-oxo-5,7-dihydro-2H,6H-spiro[furo[2,3-f]isoindole-3,4′-piperidin]-6-yl)piperidine-2,6-dione] | < 1 nM |  | < 5 nM | < 1 nM |  |  | 50 to 75% | 50 to 75%
13 | COc1cc(N2CCC3(CC2)CC(CN2CCN4c5ccc6c(c5OC[C@@H]4C2)CN([C@@H]2CCC(=O)NC2=O)C6=O)C3)c(F)cc1[C@@H]1c2ccc(O)cc2OC[C@@H]1c1ccccc1 (single isomer, unassigned) [Compound A125] | < 1 nM |  | < 5 nM | < 1 nM |  |  | ≥ 75% | ≥ 75%
14 | O=C1CCC(N2C(=O)c3cc4c(cc3C2=O)CN(CC(=O)N2CC3(CCN(c5ccc([C@@H]6c7ccc(O)cc7OC[C@@H]6c6ccccc6)cc5)CC3)C2)C4)C(=O)N1 (single isomer, unassigned) [Compound A26] |  |  | < 5 nM |  |  | 50 to 500 nM |  | 
15 | COc1cc(N2CCC(CN3CCN4c5ccc6c(c5OC[C@@H]4C3)CN([C@@H]3CCC(=O)NC3=O)C6=O)CC2)c(F)cc1[C@@H]1c2ccc(O)cc2OC[C@@H]1c1ccccc1 (single isomer, unassigned) [Compound A106] | < 1 nM |  | < 5 nM | < 1 nM |  |  | ≥ 75% | ≥ 75%
16 | O=C1CC[C@@H](N2Cc3c(ccc4c3OC[C@@H]3CN(C[C@@H]5COC6(CCN(c7ccc([C@H]8c9ccc(O)cc9OC[C@H]8c8ccccc8)cc7)CC6)C5)CCN43)C2=O)C(=O)N1 (single isomer, unassigned) [Compound A132] | 1 to 10 nM |  | < 5 nM | 1 to 10 nM |  |  | 50 to 75% | 50 to 75%
17 | O=C1CCC(N2C(=O)c3cc4c(cc3C2=O)CN(CC(=O)N2CCC3(CC2)CCN(c2ccc([C@H]5c6ccc(O)cc6OC[C@H]5c5ccccc5)cc2)CC3)C4)C(=O)N1 (stereo partly drawn) [Compound A40, 2-(2,6-dioxopiperidin-3-yl)-6-(2-(9-(4-((3R,4S)-7-hydroxy-3-phenylchroman-4-yl)phenyl)-3,9-diazaspiro[5.5]undecan-3-yl)-2-oxoethyl)-6,7-dihydropyrrolo[3,4-f]isoindole-1,3(2H,5H)-dione] | 1 to 10 nM |  | ≥ 5 nM | < 1 nM |  |  | 50 to 75% | 50 to 75%
18 | O=C1CCC(N2Cc3cc(N4CCN(CC5CC6(CCN(c7ccc([C@@H]8c9ccc(O)cc9OC[C@@H]8c8ccccc8)cn7)CC6)C5)CC4)ccc3C2=O)C(=O)N1 (single isomer, unassigned) [Compound A68] | 1 to 10 nM | B (“B”: >50% and <75%) | < 5 nM | 1 to 10 nM | A (“A”; >=75%) |  |  | 
